In ChEMBL document CHEMBL1201862, “PubChem BioAssay data set” (2004):
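Method: 48-hour compound exposure of cells in 96-well plates, five concentrations, linear interpolation of endpoints. At the GI50, growth is halved.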 Active and inactive are the calls of the source. Cut-off read from the data, not from the text of the source: active = GI50 up to about 1.1 µM and inactive = higher.

Experiments:
Assay in all cases: NCI anticancer screen, dose series, 48 h
A549 = tested on: A549
ACHN = tested on: ACHN
DMS-114 = tested on: DMS-114
HCC 2998 = tested on: HCC 2998
HOP-92 = tested on: HOP-92
HT-29 = tested on: HT-29
MOLT-4 = tested on: MOLT-4
NCI-H460 = tested on: NCI-H460
NCI-H522 = tested on: NCI-H522
SF-539 = tested on: SF-539
SK-MEL-28 = tested on: SK-MEL-28
UACC-257 = tested on: UACC-257
COLO 205 = tested on: COLO 205
KM12 = tested on: KM12
SF-268 = tested on: SF-268
SK-OV-3 = tested on: SK-OV-3

Measured: GI50

CN(c1ccccc1)c1c(Cl)c(=O)oc2c1ccc1occc12
inactive: A549 > 100 µM | ACHN > 100 µM | DMS-114 > 100 µM | HCC 2998 > 100 µM | HOP-92 67.3 µM | HT-29 > 100 µM | MOLT-4 55.2 µM | NCI-H460 > 100 µM | NCI-H522 > 100 µM | SF-539 > 100 µM | SK-MEL-28 > 100 µM | UACC-257 > 100 µM

O=C(Nc1nc2ncn(CCOC(=O)c3ccccc3)c2c(=S)[nH]1)c1ccccc1
inactive: A549 66.2 µM | ACHN > 100 µM | COLO 205 > 100 µM | DMS-114 64.4 µM | HCC 2998 > 100 µM | HOP-92 42.7 µM | HT-29 > 100 µM | KM12 > 100 µM | NCI-H460 48.1 µM | NCI-H522 21 µM | SF-268 13.5 µM | SF-539 30.5 µM | SK-MEL-28 42.3 µM | SK-OV-3 > 100 µM | UACC-257 55.8 µM

COC1OC(COCc2ccc(Cl)cc2)C(OCc2ccc(Cl)cc2)C1N=[N+]=[N-] (stereo not drawn)
inactive: A549 4.32 µM | ACHN > 100 µM | COLO 205 > 100 µM | DMS-114 24.2 µM | HCC 2998 > 100 µM | HOP-92 97.1 µM | HT-29 > 100 µM | KM12 > 100 µM | MOLT-4 42.2 µM | NCI-H460 > 100 µM | NCI-H522 85.1 µM | SK-MEL-28 > 100 µM | SK-OV-3 > 100 µM | UACC-257 81.7 µM

O=C(CCC(=O)N/N=C/c1ccccc1O)N/N=C/c1ccccc1O
inactive: A549 > 100 µM | COLO 205 > 100 µM | DMS-114 > 100 µM | HCC 2998 > 100 µM | HOP-92 27.9 µM | HT-29 > 100 µM | KM12 > 100 µM | MOLT-4 > 100 µM | NCI-H522 53.2 µM | SF-268 18.8 µM | SF-539 > 10 µM | SK-MEL-28 41.1 µM | SK-OV-3 18.9 µM | UACC-257 > 100 µM

Oc1cc(O)c2c(-c3c(O)c(-c4ccc(O)c(O)c4)[o+]c4cc(O)cc(O)c34)c(O)c(-c3ccc(O)c(O)c3)[o+]c2c1
inactive: A549 48.2 µM | ACHN 21.7 µM | COLO 205 42.5 µM | DMS-114 32.7 µM | HCC 2998 39.2 µM | HOP-92 36.7 µM | HT-29 37.6 µM | KM12 35.1 µM | MOLT-4 30.5 µM | NCI-H460 21.5 µM | SF-268 40.3 µM | SF-539 25.6 µM | SK-MEL-28 91.2 µM | SK-OV-3 34.1 µM | UACC-257 > 100 µM

Nc1ccc(C2=N/C(=C\c3cccc(N)c3)C(=O)O2)cc1
inactive: A549 > 100 µM | ACHN > 100 µM | COLO 205 > 100 µM | DMS-114 > 100 µM | HCC 2998 > 100 µM | HOP-92 > 100 µM | HT-29 > 100 µM | KM12 > 100 µM | MOLT-4 > 100 µM | NCI-H522 > 100 µM | SF-268 > 100 µM | SF-539 > 100 µM | SK-MEL-28 > 100 µM | SK-OV-3 > 100 µM

Cc1cc(C(O)CCCc2ccccc2)cc(C)c1O (stereo not drawn)
inactive: A549 32.7 µM | ACHN 24.2 µM | COLO 205 67.6 µM | DMS-114 26.2 µM | HCC 2998 74.1 µM | KM12 29.6 µM | MOLT-4 19.4 µM | NCI-H460 36.6 µM | NCI-H522 27.4 µM | SF-268 28.4 µM | SF-539 38.2 µM | SK-MEL-28 34.4 µM | SK-OV-3 > 100 µM | UACC-257 25.8 µM
